What all share (assay): relative viability (nuclei count vs DMSO), 5 days (fraction); higher = more cells survive
Compound in experiment [1]: CC(O)(CS(=O)(=O)c1ccc(F)cc1)C(=O)Nc1ccc(C#N)c(C(F)(F)F)c1 [Bicalutamide] + Nc1ncn([C@H]2C[C@H](O)[C@@H](CO)O2)c(=O)n1 [Decitabine] (partner 2 µM)
The method in brief:
(§1)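 Each reported value is a median over duplicate plates. It expresses relative viability: treated-well nuclei count divided by vehicle-well nuclei count. Lung cancer cell lines in 1536-well plates were dosed by pin tool a day after seeding, alone with one drug or with a fixed anchor-drug dose plus five library-drug doses (not always all listed) in √10 steps, and nuclei were counted after 5 days.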

Compound in experiment [2]: C(C(=O)C(=O)O)Br [Bromopyruvate] + COc1cc2c(Oc3ccc(NC(=O)C4(C(=O)Nc5ccc(F)cc5)CC4)cc3F)ccnc2cc1OCCCN1CCOCC1 [Foretinib] (partner 0.25 µM)
In outline: as §1

Compound in experiment [3]: CC(O)(CS(=O)(=O)c1ccc(F)cc1)C(=O)Nc1ccc(C#N)c(C(F)(F)F)c1 [Bicalutamide] + CC1(C)CCC(c2ccc(Cl)cc2)=C(CN2CCN(c3ccc(C(=O)NS(=O)(=O)c4ccc(N[C@H](CCN5CCOCC5)CSc5ccccc5)c(S(=O)(=O)C(F)(F)F)c4)cc3)CC2)C1 [Navitoclax] (partner 0.5 µM)
The method in brief:
as §1

Compound in experiment [4]: C(C(=O)C(=O)O)Br [Bromopyruvate] + Nc1ncn([C@H]2C[C@H](O)[C@@H](CO)O2)c(=O)n1 [Decitabine] (partner 2 µM)
In outline: as §1

As to NCI-H322M, the relative viability in experiment [1] (first compound 0.08 µM) is 0.656; in experiment [1] (first compound 0.253 µM), 0.494; in experiment [1] (first compound 0.8 µM), 0.649; in experiment [1] (first compound 2.53 µM) it was 0.735; in experiment [2] (first compound 1 µM), 0.978; in experiment [2] (first compound 3.162 µM), 0.964. The relative viability came to 1.02 in experiment [2] (first compound 10 µM); 0.99 in experiment [2] (first compound 31.62 µM); 1.05 in experiment [2] (first compound 100 µM); 1.3 in experiment [3] (first compound 0.08 µM); 1.18 in experiment [3] (first compound 0.253 µM); 1.28 in experiment [3] (first compound 0.8 µM). Further, the relative viability was 1.22 in experiment [3] (first compound 2.53 µM); 0.705 in experiment [4] (first compound 1 µM); 0.717 in experiment [4] (first compound 3.162 µM); 0.747 in experiment [4] (first compound 10 µM); 0.758 in experiment [4] (first compound 31.62 µM); 0.669 in experiment [4] (first compound 100 µM).

On to NCI-H441, for which the relative viability in experiment [1] (first compound 0.08 µM) was determined as 0.264; in experiment [1] (first compound 0.253 µM), 0.23; in experiment [1] (first compound 0.8 µM), 0.22; in experiment [1] (first compound 2.53 µM), 0.257; in experiment [2] (first compound 1 µM), 1.08; in experiment [2] (first compound 3.162 µM) it was 1.02. In addition, the relative viability in experiment [2] (first compound 10 µM) stood at 0.986; in experiment [2] (first compound 31.62 µM), 0.984; in experiment [2] (first compound 100 µM) it was 0.947; in experiment [3] (first compound 0.08 µM), 0.551; in experiment [3] (first compound 0.8 µM), 0.622; in experiment [3] (first compound 2.53 µM) it was 0.518. Further, the relative viability in experiment [4] (first compound 1 µM) is 0.324; in experiment [4] (first compound 3.162 µM), 0.238; in experiment [4] (first compound 10 µM), 0.243; in experiment [4] (first compound 31.62 µM) it was 0.22; in experiment [4] (first compound 100 µM) it was 0.242.

In the case of NCI-H460, the relative viability was 0.55 in experiment [1] (first compound 0.08 µM); 0.468 in experiment [1] (first compound 0.253 µM); 0.598 in experiment [1] (first compound 0.8 µM); 0.484 in experiment [1] (first compound 2.53 µM); 0.928 in experiment [2] (first compound 1 µM); 1.01 in experiment [2] (first compound 3.162 µM). Also, the relative viability in experiment [2] (first compound 10 µM) was found to be 1.15; in experiment [2] (first compound 31.62 µM), 1.02; in experiment [2] (first compound 100 µM), 1; in experiment [3] (first compound 0.08 µM), 1.13; in experiment [3] (first compound 0.253 µM), 1.1; in experiment [3] (first compound 0.8 µM), 1.39. The relative viability in experiment [3] (first compound 2.53 µM) worked out at 1.22; in experiment [4] (first compound 1 µM), 0.484; in experiment [4] (first compound 3.162 µM) it was 0.459; in experiment [4] (first compound 10 µM) it was 0.679; in experiment [4] (first compound 31.62 µM) it was 0.46; in experiment [4] (first compound 100 µM), 0.468.

For NCI-H520, the relative viability came out at 0.576 in experiment [1] (first compound 0.08 µM); 0.52 in experiment [1] (first compound 0.253 µM); 0.646 in experiment [1] (first compound 0.8 µM); 0.51 in experiment [1] (first compound 2.53 µM); 0.83 in experiment [2] (first compound 1 µM); 0.805 in experiment [2] (first compound 3.162 µM). The relative viability in experiment [2] (first compound 10 µM) came to 0.646; in experiment [2] (first compound 31.62 µM), 0.859; in experiment [2] (first compound 100 µM) it was 0.895; in experiment [3] (first compound 0.08 µM), 0.97; in experiment [3] (first compound 0.253 µM), 1.1; in experiment [3] (first compound 0.8 µM) it was 1.16. The relative viability in experiment [3] (first compound 2.53 µM) came to 1.13; in experiment [4] (first compound 1 µM), 0.576; in experiment [4] (first compound 3.162 µM), 0.486; in experiment [4] (first compound 10 µM), 0.473; in experiment [4] (first compound 31.62 µM), 0.531; in experiment [4] (first compound 100 µM) it was 0.414.

Turning to NCI-H596, the relative viability in experiment [1] (first compound 0.08 µM) worked out at 0.975; in experiment [1] (first compound 0.253 µM) it was 1.02; in experiment [1] (first compound 0.8 µM) it was 1.09; in experiment [1] (first compound 2.53 µM) it was 0.983; in experiment [2] (first compound 1 µM) it was 0.86; in experiment [2] (first compound 3.162 µM) it was 0.946. Further, the relative viability in experiment [2] (first compound 10 µM) came to 1.02; in experiment [2] (first compound 31.62 µM), 0.685; in experiment [2] (first compound 100 µM), 0.232; in experiment [3] (first compound 0.08 µM), 1.03; in experiment [3] (first compound 0.253 µM), 0.847; in experiment [3] (first compound 0.8 µM), 1.24. Further, the relative viability in experiment [3] (first compound 2.53 µM) is 1.15; in experiment [4] (first compound 1 µM) it was 1.64; in experiment [4] (first compound 3.162 µM) it was 1.11; in experiment [4] (first compound 10 µM), 0.974; in experiment [4] (first compound 31.62 µM), 1.05; in experiment [4] (first compound 100 µM), 1.03.

As to NCI-H647, the relative viability in experiment [1] (first compound 0.08 µM) was 0.601; in experiment [1] (first compound 0.253 µM) it was 0.328; in experiment [1] (first compound 0.8 µM) it was 0.34; in experiment [1] (first compound 2.53 µM), 0.338; in experiment [2] (first compound 1 µM) it was 1.26; in experiment [2] (first compound 3.162 µM), 1.2. Further, the relative viability in experiment [2] (first compound 10 µM) was found to be 1.31; in experiment [2] (first compound 31.62 µM) it was 1.21; in experiment [2] (first compound 100 µM), 1.06; in experiment [3] (first compound 0.08 µM), 1.15; in experiment [3] (first compound 0.253 µM) it was 1.09; in experiment [3] (first compound 0.8 µM), 1.46. The relative viability in experiment [3] (first compound 2.53 µM) is 1.18; in experiment [4] (first compound 1 µM), 0.439; in experiment [4] (first compound 3.162 µM) it was 0.362; in experiment [4] (first compound 10 µM), 0.405; in experiment [4] (first compound 31.62 µM), 0.393; in experiment [4] (first compound 100 µM) it was 0.474.

Take NCI-H727: the relative viability came out at 0.994 in experiment [1] (first compound 0.08 µM); 0.847 in experiment [1] (first compound 0.253 µM); 0.896 in experiment [1] (first compound 0.8 µM); 0.991 in experiment [1] (first compound 2.53 µM); 0.9 in experiment [2] (first compound 1 µM); 1.08 in experiment [2] (first compound 3.162 µM). The relative viability in experiment [2] (first compound 10 µM) amounted to 0.728; in experiment [2] (first compound 31.62 µM), 0.93; in experiment [2] (first compound 100 µM), 0.802; in experiment [3] (first compound 0.08 µM), 0.457; in experiment [3] (first compound 0.253 µM), 0.415; in experiment [3] (first compound 0.8 µM), 0.405. Also, the relative viability in experiment [3] (first compound 2.53 µM) turned out to be 0.373; in experiment [4] (first compound 1 µM) it was 0.815; in experiment [4] (first compound 3.162 µM), 1.09; in experiment [4] (first compound 10 µM) it was 0.966; in experiment [4] (first compound 31.62 µM), 0.915; in experiment [4] (first compound 100 µM), 0.871.

Take NCI-H838: the relative viability in experiment [1] (first compound 0.08 µM) amounted to 0.484; in experiment [1] (first compound 0.253 µM), 0.461; in experiment [1] (first compound 0.8 µM), 0.508; in experiment [1] (first compound 2.53 µM), 0.371; in experiment [2] (first compound 1 µM), 1.03; in experiment [2] (first compound 3.162 µM), 1.08. Besides, the relative viability in experiment [2] (first compound 10 µM) came out at 1.07; in experiment [2] (first compound 31.62 µM), 1.05; in experiment [2] (first compound 100 µM), 1.03; in experiment [3] (first compound 0.08 µM) it was 1.1; in experiment [3] (first compound 0.253 µM), 1.07; in experiment [3] (first compound 0.8 µM) it was 1.25. Also, the relative viability in experiment [3] (first compound 2.53 µM) came out at 0.854; in experiment [4] (first compound 1 µM) it was 0.485; in experiment [4] (first compound 3.162 µM) it was 0.461; in experiment [4] (first compound 10 µM), 0.408; in experiment [4] (first compound 31.62 µM) it was 0.405; in experiment [4] (first compound 100 µM), 0.457.

The values are drawn from the supplement of paper PMC10307832.
